{
  "source": "patent US5260050A",
  "about": "“Methods and compositions for magnetic resonance imaging comprising superparamagnetic ferromagnetically coupled chromium complexes” (priority 1990, dated 1993)",
  "key": {"[1]": {"tested_on": "BRO-strain human malignant melanomas", "experiment": "MR imaging of human melanoma xenografts in nude mice", "assay_type": "in vivo, human; Swiss nude mice", "settings": "i.v.", "procedure": "The strong paramagnetic metal ion, gadolinium (Gd^+3), was chelated stoichiometrically to DTPA-Dextran 70 polymer, whose preparation is described in Example 1, paragraph 2 (improved formulation). Swiss nude mice were inoculated with BRO-strain human malignant melanomas, and these were allowed to grow to a 1-1.5 cm diameter. Moderately T1-weighted MR imaging (TR=500 msec, TE=40 msec) was performed in a standard Diasonics™ medical imager and a 30-cm RF head coil, before and after intravenous injection of equivalent doses of Gd-DTPA-Dextran-70 (0.03 mmol Gd/kg) or Gd-DTPA (0.1 mmol/kg) contrast agent. […] It will also be recognized that much lower doses of the stronger superparamagnetics (including doses below about 0.01 mmol/kg, versus 0.1 mmol/kg for Gd-DTPA) can be used to obtain effective MRI contrast enhancement; and that much faster, more heavily T1-weighted pulse sequences can be implemented in the presence of superparamagnetic-polymer conjugates or paired-ion complexes."}, "[2]": {"settings": "cited from earlier work"}, "[3]": {"settings": "in vivo; cited from earlier work"}, "[4]": {"tested_on": "tumor", "settings": "in vivo; cited from earlier work"}, "[5]": {"settings": "typically 15 MHz; cited from earlier work"}, "[6]": {"tested_on": "VX2 carcinoma cells", "experiment": "Histochemical platinum staining of perfused VX2 tumors", "assay_type": "in vivo, rabbit", "settings": "intraarterial perfusion", "procedure": "At 5 to 15 minutes postinjection, the animals were sacrificed, their lungs removed and fixed with intratracheal buffered formalin, tissue sections cut at 8 microns thickness, and the sections stained using a newly devised method for platinum which comprises a microwave-augmented iron-type stain (60° C.×2 minute×3 cycles) using a 1:1 mixture of 2% ferriferocyanide reagent and 4% HCl. […] To those skilled in the art, additional evidence for selective lung localization, was obtained by injecting intravenously, analogous (subembolizing) heparin-coated nanoparticles containing encapsulated amphotericin B, into identical mice, homogenizing the lungs, and documenting an 8-fold increment in drug levels over native amphotericin B (deoxycholate formulation, Fungizone; Squibb) recovered at 1 to 3 hours postinjection.\nAdditional documentation for maintenance of the cisplatin-carrier paired-ion complex in vivo was obtained as follows. […] Animals were sacrificed at 15 minutes, and the tumors and organs were homogenized extracted and analyzed by atomic absorption for tissue platinum concentrations, as shown in Table 1.\nAdditionally, histochemical platinum stains were performed on the tumor tissues, as described in Example 7.\nMicroinhomogeneities of tissue heating represent a major problem in hyperthermia treatment of tumors. […]"}, "[7]": {"experiment": "Permeability of tumor vascular walls", "settings": "transport by a polymeric carrier"}, "[8]": {"tested_on": "tumor cells", "experiment": "Histology of heparin carrier transport into tumor cells", "settings": "histologically (not shown)"}},
  "data": [
    {"molecule": "CNC[C@H](O)[C@@H](O)[C@H](O)[C@H](O)CO.CNC[C@H](O)[C@@H](O)[C@H](O)[C@H](O)CO.O=C([O-])CN(CCN(CC(=O)[O-])CC(=O)O)CCN(CC(=O)[O-])CC(=O)O.[Gd+3]", "note": "[Gd-DTPA, gadolinium-diethylenetriaminepentaacetate (Gd-DTPA) dimeglumine]", "values": [
      {"measurement": "Fading of tumor enhancement", "setting": "[1]; 0.1 mmol/kg, by one hour", "value": "completely faded"},
      {"measurement": "Postcontrast interval at which optimal tumor enhancement began", "setting": "[1]; 0.03 mmol Gd/kg (Gd-DTPA-dextran) or 0.1 mmol/kg (Gd-DTPA), TR=500, TE=40 msec", "value": 10, "unit": "min"},
      {"measurement": "Blood clearance half-time", "setting": "[2]; bloodstream", "value": 20, "unit": "min"},
      {"measurement": "Fading of tumor contrast enhancement", "setting": "[2]; by 30 minutes postcontrast", "value": "almost complete fading (tumor clearance)"},
      {"measurement": "Acute hepatic uptake interval", "setting": "[2]; in vivo", "value": "5 to 45", "unit": "min"},
      {"measurement": "Postinjection contrast interval / imaging window", "setting": "[2]; in vivo", "value": "10 to 45", "unit": "min"},
      {"measurement": "Retained fraction", "setting": "[2]; in vivo", "value": "less than 0.5%"},
      {"measurement": "Fraction sequestered in the kidneys", "setting": "[2]; intravenous", "value": "> 90", "unit": "%"},
      {"measurement": "Biodistribution, share of total body water", "setting": "[3]", "value": "ca. 35 % of total body water"},
      {"measurement": "Retention in tumor interstitium / tumor enhancement of comparator", "setting": "[4]", "value": "10 to 45", "unit": "min"},
      {"measurement": "Relaxivity at higher clinical radio frequencies", "setting": "[5]", "value": "moderate decrease in relaxivity"}
    ]},
    {"molecule": "N.N.[Cl][Pt][Cl]", "note": "[cisplatin, cis-dichlorodiamine platinum]", "values": [
      {"measurement": "Aggregated staining", "setting": "[6]", "value": "absent"}
    ]},
    {"molecule": "OCC(O)CO", "note": "[glycerol]", "values": [
      {"measurement": "Permeability of tumor vascular walls", "setting": "[7]", "value": "increases the permeability of the vascular walls in the tumorous region"}
    ]},
    {"molecule": "heparin", "values": [
      {"measurement": "Intracellular transport in tumor cells", "setting": "[8]", "value": "transported inside tumor cells"}
    ]}
  ]
}
